# Experimental data reported in US20260256922A1, “PRODRUGS USEFUL FOR REDUCING ANTHRACYCLINE CARDIOTOXICITY” (WAKE FOREST UNIVERSITY HEALTH SCIENCES, priority 2022, published 2026).
# Legend:
# H9C2 cardiomyoblasts [1] = conditions: H9C2, 10 and 20 μM, 24 or 48 h; difference not significant at 48 h
# Protocol: Cytotoxicity of DOX and prodrugs in H9C2 cardiomyoblasts. Media from cells exposed for 24 or 48 h to 10 or 20 µM of c1, c2, DOX or vehicle (DMSO, final concentration 0.1% in all samples) was centrifuged to remove cells and cell debris, and supernatants were assessed spectrophotometrically by lactose dehydrogenase (LDH) assay to evaluate release into the media as a measure of cytotoxicity (n=6 or more). *, p<0.05; **, p<0.01; ***, p<0.001; ****, p<0.0001.
# Cytotoxicity of c1, c2 and DOX was evaluated by measuring the release of lactate dehydrogenase (LDH) into the culture medium over time.
# H9C2 and 4T1 cells were plated at a density of 10,000 per well in 96-well plates. Twenty-four h after plating, cells were treated with 10 or 20 µM DOX (from 20 mM stock dissolved in DMSO, for 0.1% final DMSO) and were incubated for 24 or 48 h. The extracellular medium was centrifuged at 12,000×g for 5 min to pellet cellular debris, and the supernatants were assessed for release of lactate dehydrogenase (LDH) using a colorimetric activity assay (Invitrogen) as directed and spectral detection (Benchmark or BioRad microplate reader). Values were used to determine % cytotoxicity as described in the kit, using treatment with lysis buffer to release all LDH into the medium (defining 100% release) or cells without treatment (to define 0% release).
# Nrf2 = Nrf2 and HO-1 immunoblots in H9C2 cells; assay type: cell-based, rat; conditions: H9C2, relative to DMSO vehicle
# Description: The bar graphs below represent the mean±SEM. Results were statistically different between c1 and DOX in both cases (p=0.002 and p=0.019), and more marginally so between c1 and DMSO (p=0.011 and p.=0.025), for Nrf2 and HO-1, respectively.
# caspase-3 = assay: Caspase-3 cleavage immunoblot in H9C2 cells; conditions: H9C2, 10 or 20 μM, 24 h
# Protocol: FIG. 6. […] H9C2 cells in culture were treated for 24 hr with c1, c2, DOX or vehicle (DMSO), then harvested into lysis buffer and immunoblotted for caspase-3. Data analyzed by ImageJ were used to assess the percent of the two bands present as the lower band.
# We next evaluated apoptotic signaling through caspase-3 cleavage at 24 h to compare the experimental compounds.
# To evaluate levels of caspase cleavage (using an antibody recognizing both cleaved and uncleaved, Cell Signaling, cat #9662), Nrf2 (antibody from Thermo Fisher, cat #PA5-27882), and HO-1 (antibody from Proteintech, cat #10701-1-AP), H9C2 cells were plated at a density of 450,000 per well in a 24-well plate, then treated 24 h later with 10 or 20 µM DOX and incubated another 24 h before harvesting. For some samples, 100 mM hydroxocobalamin (HO-Cbl) was added 5 min before drug treatment. Cells were harvested by removing media (and recovering any non-adherent cells by centrifugation for 5 min at 10,600×g, discarding the supernatant), and combining that with the 120 μL of lysis buffer added to each well. Lysis buffer [50 mM Tris-HCl at pH 8.0, with 100 mM NaCl, 100 µM diethylene triamine pentaacetic acid (DTPA), 20 mM β-glycerophosphate, 0.1% SDS, 0.5% Na Desoxycholate, and 0.5% Triton-X-100] was prepared by freshly adding protease and phosphatase inhibitors before use (1 mM PMSF, 10 μg/mL aprotinin, 1 mM Na3VO4, 10 mM NaF and 10 μg/mL leupeptin). Samples were further incubated on ice for 30 min, then centrifuged at high speed (20,800×g for 10 min) to remove cell debris, and supernatants were mixed with 5×SDS protein sample buffer for Western blot analysis following resolution of 40 μg per sample on 10% SDS-polyacrylamide gels. Protein concentrations of supernatants were determined using a BCA assay (Pierce). Antibodies were used at dilutions of 1:1000 (for HO-1 and caspase-3) or 1:3000 (for Nrf2).
# [2] = Time-dependent DOX release from prodrugs in presence of H2O2 (LCMS); assay type: physicochemical; conditions: prodrug 10 μM, H2O2 10 μM, ammonium bicarbonate buffer 0.1 M pH 7.4
# Protocol: FIG. 1. Time-course for DOX release from prodrugs (10 μM) in ammonium bicarbonate buffer (0.1 M, pH 7.4) at room temperature and in the presence of H2O2 (10 μM). A calibration curve was used to determine the concentration of free DOX at each time point by LCMS. Plotted as the mean±standard error of the mean (SEM) from three independent experiments.
# To confirm this reactivity, we incubated c1 (10 μM) with H2O2 (10 μM) at room temperature in ammonium bicarbonate buffer (0.1 M, pH 7.4). At various time points, an aliquot was removed and analyzed by LCMS. Using a calibration curve, we determined the percentage of released DOX over the course of two hours. […] For comparison, we also assessed the reactivity of c2 towards the same concentration of peroxides. Like c1, c2 also functioned as an H2O2-activated DOX prodrug, but with faster kinetics, as quantitative release of free DOX was realized within 60 min.
# A stock solution of c1 (or c2, 10 mM) in DMSO and H2O2 (10 mM) in ammonium bicarbonate buffer (0.1M, pH 7.4) were prepared immediately prior to use. […] At various time points (0 min, 10 min, 35 min, 60 min, 80 min, 100 min, 120 min), a 1 mL (inject volume 60 μL) aliquot was removed and analyzed by LC-MS (using a C18 analytical column and eluting at 0.4 mL/min with a linear gradient (20-90% v/v) MeOH/H2O (0-2 min), followed by 90% v/v MeOH/H2O (2-19 min)). […]
# H9C2 cardiomyoblasts [3] = assay: Uptake into H9C2 cardiomyoblasts by live-cell confocal microscopy; assay type: cell-based, rat; conditions: imaging over 18 h
# Protocol: FIG. 4. Uptake of DOX and prodrugs c1 and c2 by H9C2 cardiomyoblasts. H9C2 cells cultures grown overnight on chambered coverslips in media with 10% serum were switched to Fluorobrite DMEM imaging media supplemented with 5% serum and prepared for live-cell imaging on a Zeiss LSM 880 confocal microscope, then 10 µM of c1, c2, or DOX was added and images were taken every 10 min (averaged every 30 min) for 18 h. Approximately 20 cells present in each field of view were averaged for each sample and time point; normalized and averaged data from two replicates each±SEM were included for c1 and DOX. An earlier independent trial yielded very similar results (Fig. S1).
# Uptake of DOX and prodrugs into H9C2 cardiomyoblasts. Before comparing the biological effects of treatments by DOX and prodrugs, it was important to know their time dependence of accumulation into the H9C2 cardiomyoblasts under investigation. For this, confocal microscopy of live cells in culture was used to track in real time the accumulation of the fluorescent molecules into the cells, allowing direct comparisons between c1, c2 and Dox. […] Thus, any biological effects observed using c1 rather than DOX will not be due to limited cellular uptake.
# To evaluate drug uptake, H9C2 cells were plated at a density of 20,000 per well on 24 well #1.5 polymer chambered coverslips (Ibidi) in media including 10% FBS and allowed to adhere for ~20 h. Prior to imaging analysis, the media was replaced with Fluorobrite DMEM imaging media (Gibco) supplemented with 5% FBS. To 1 mL of media in each well was added either vehicle (DMSO), or a 20 mM stock solution of c1, c2, or DOX to give final concentrations of 10 or 20 µM drug and 0.1% DMSO. […] DOX and the prodrugs were detected with excitation by a 458 nm laser at 0.3% and emission from 535-648 nm.
# Each position consisted of a 3 slice z-stack that was compressed with a maximum intensity projection for analysis. […] The mean intensity for both channels was calculated, normalized, and then averaged to 30 min time points.
SMILES,cytotoxicity (LDH release) (H9C2 cardiomyoblasts [1]),HO-1 expression (immunoblot) (Nrf2),caspase-3 cleavage (caspase-3),time to quantitative release of free DOX [2],accumulation in cells compared with DOX (H9C2 cardiomyoblasts [3])
"COc1cccc2c1C(=O)c1c(O)c3c(c(O)c1C2=O)C[C@@](O)(C(=O)CO)C[C@@H]3O[C@H]1C[C@H](N)[C@H](O)[C@H](C)O1 [DOX, Doxorubicin, reference compound]",more toxic than c1,completely suppressed both,,,
COc1cccc2c1C(=O)c1c(O)c3c(c(O)c1C2=O)C[C@@](O)(C(=O)CO)C[C@@H]3O[C@H]1C[C@H](NC(=O)OCc2ccc(B3OC(C)(C)C(C)(C)O3)cc2)[C@H](O)[C@H](C)O1 [c2],intermediate toxicity but more similar to DOX than c1,,neither c1 nor c2 at either 10 or 20 UM caused notable caspase-3 cleavage,≤ 60 min,as slow as or slower than Dox
